From patent US20230346827A1 (priority 2020, published 2023) come the findings set out here.

The experiment concerns Mouse cortical neurons. Description: Gene expression array and pathway analysis, cortical neurons, LMW-DS 0.01 mg/ml 48 h. Type of experiment: cell-based. To be noted: for number of genes: abolished nutrient effect / number of genes: new effect induced by LMW-DS / number of genes: total / number of genes: enhanced response to nutrients / number of genes: not different from control: cortical neurons. On the procedure: For each cell line, n=8 × 25 cm^2 culture flasks were set up. Two flasks were harvested for each cell type on the day of treatment (24 hours after seeding). This represents the Day0 time point. From the remaining flasks, three flasks were treated with Control Medium and three were treated with Culture Medium (CM) containing LMW-DS to give a final concentration of 0.01 mg/ml. Cells from the treated flasks were collected after 48 hours. Therefore the collected data represent (a) untreated cells (Day0 Controls and Day2 Controls) and (b) cells treated with LMW-DS (ILB®, Tikomed AB, Viken, Sweden, WO 2016/076780) for 48 hours (Day2 LMW-DS treated).
Medium was prepared by adding 10 ml B-27 Serum-Free Supplement and 2.5 ml GlutaMAX™-1 Supplement to 500 ml of Neurobasal medium. The medium was pre-warmed to 37° C. Cells from 12 vials were thawed sequentially in a 37° C. water bath for no longer than 2 min and gently transferred into a 15 ml tube. 9 ml of medium was gently added drop-wise to each. The cell suspension was mixed by inverting the tubes carefully twice.
The cells were centrifuged for 5 minutes at 200 x g. Supernatant was removed (to the last 0.5 ml) and cells were gently re-suspended by trituration. The cells from the 12 vials were mixed and distributed equally into the previously coated 25 cm^2 flasks (n=8). Cells were incubated at 37° C. with 5% CO2 for 24 hours.
LMW-DS was provided at a stock concentration of 20 mg/ml and was kept in a temperature monitored refrigerator at 4° C. A fresh 100x LMW-DS stock (1.0 mg/ml) was prepared in sterile DMEM-F12. The concentrated drug stock was sterile filtered and added to the respective culture media (19.6 ml CM and 0.4 ml LMW-DS stock solution). The Control was made using 19.6 ml CM and 0.4 ml of DMEM-F12. LMW-DS and CM were added to the respective flasks (5 ml each) to reach the 0.01 mg/ml concentration of LMW-DS in each dish with a total of 10 ml CM each.
CM was aspirated into a clean and labelled 15 ml Falcon tube. The flasks (without culture medium) were placed into the -80° C. freezer for 30 minutes. The CM in the Falcon tubes was spun at 3000 x g for 5 minutes. Supernatant was removed and the small pellet was re-suspended in 2.5 ml Trizol:Water (4:1) solution at room temperature (RT, ~22° C.).
Two aliquots of 1 ml lysate were removed from each sample and 200 µl of chloroform was added to each (0.2 ml of chloroform per 1 ml of TRIzol Reagent used during the cell lysis step) and the tube was shaken vigorously. Samples were stored at RT for 2-3 minutes and subsequently centrifuged at 12,000 x g for 15 minutes at 4° C.
The RNA was precipitated from the aqueous phase by adding an equal amount of 100% ethanol. The precipitated RNA was fixed onto a Spin Cartridge, washed twice and dried. The RNA was eluted in 50 µl warm RNase-Free Water. The amount and quality of the purified RNA was measured by Nanodrop. The RNA was stored at -80° C. before transfer to Source Bioscience for Array analysis.
The expression data were downloaded into separate files for each cell line. The ‘Background corrected’ expression is the data from the “gProcessedSignal” of the arrays that is the result of the background signal extracted from the actual signal of the relevant probe. This is the most often used variable in array analysis. The background corrected signal was log2 transformed for all samples for statistical analysis. To reduce the false discovery rate in the samples, the signals that were below ‘expression level’ were removed. The ‘below expression’ level was set at 5 for the log2 transformed expression values.
Based on the expression pattern of the Control probes on each array it was decided to carry out Median Centering for all arrays before analysis to reduce the variability of the results. […]

[1] abbreviates: pathway analysis of gene expression.

For sodium salt of dextran sulfate [LMW-DS], the “number of differentially expressed genes” value (D0 control to D2 LMW-DS treated) was determined as 609. In addition, the “number of differentially expressed genes” value (D0 control to D2 LMW-DS treated (second statement)) was 247. Under “no effect”, the “number of genes: abolished nutrient effect” value came out at 572, the “number of genes: new effect induced by LMW-DS” value (“number of genes … by LMW-DS” for short) came to 19 and the “number of genes: total” value turned out to be 591. Further, where the note is “significant downregulation”, the “number of genes: abolished nutrient effect” value was found to be 7, the “number of genes: enhanced response to nutrients” value (“number of genes … to nutrients” for short) was found to be 158, the “number of genes … by LMW-DS” value is 22 and the “number of genes: not different from control” value (“number of genes: not different” for short) is 95. For the same substance, for the setting “significant downregulation”, the “number of genes: total” value is 282. Moreover, under “significant upregulation”, the “number of genes: abolished nutrient effect” value turned out to be 33, the “number of genes … to nutrients” value came out at 43, the “number of genes … by LMW-DS” value is 7 and the “number of genes: not different” value was 221. The “number of genes: total” value (significant upregulation) is on record as 304. Also, under “total”, the “number of genes: abolished nutrient effect” value was determined as 612, the “number of genes … to nutrients” value is reported as 612, the “number of genes … by LMW-DS” value was found to be 48 and the “number of genes: not different” value is 316. Moreover, the “number of genes: total” value (total) was found to be 1177. Under setting [1], the “deleterious effects of oxidative stress (amyloid-β and Lewy body pathology, mitochondrial dysfunction)” value was “prevent and reverse”; the glutamate production result is “did not alter”.
